Assay results taken from patent US20220389515A1, “USE OF BIOMARKERS TO PREDICT CLINICAL SENSITIVITY TO 2-(4-CHLOROPHENYL)-N-((2-(2,6-DIOXOPIPERIDIN-3-YL)-1-OXOISOINDOLIN-5-YL)METHYL)-2,2-DIFLUOROACETAMIDE” (priority 2019, published 2022).

Columns and labels:
[1] = target: Ikaros (Homo sapiens, UniProt Q13422+Q96SW2); conditions: U937-Cas9; 18 hours
Procedure: Cells were treated with DMSO or Compound D in the presence of cycloheximide. FIGS. 8D and 8E show the immunoblot analysis of U937-Cas9 cells stably expressing HA-tagged GSPT1 and the indicated sgRNAs. Cells were treated with DMSO, Compound D (FIG. 8D) or pomalidomide (POM; FIG. 8E) at the indicated concentrations for 18 hours.
To understand whether the effect of mTOR activation on Compound D-induced GSPT1 degradation can be ascribed to an increased rate of GSPT1 protein synthesis and/or a decreased rate of GSPT1 degradation, the change of GSPT1 protein half-life in response to TSC1 or TSC2 loss in the presence or absence of Compound D was determined.

[2] = relative humidity increased from about 0% to about 90% RH; cited from earlier work
[3] = target: T1, GSPT1 (Homo sapiens, UniProt P15170); experiment: Immunoblot analysis of Compound D-induced GSPT1 degradation in AML cells; assay type: cell-based; conditions: U937 parental, TSC1-/- and TSC2-/- cells
T1 construct: endogenous in cells; host or cells: KG-1 (TMT proteomics); KG1, U937 / U937-Cas9, MOLM-13, OCI-AML2 (immunoblots)
T1 sequence (P15170 1-637 isoform P15170-3): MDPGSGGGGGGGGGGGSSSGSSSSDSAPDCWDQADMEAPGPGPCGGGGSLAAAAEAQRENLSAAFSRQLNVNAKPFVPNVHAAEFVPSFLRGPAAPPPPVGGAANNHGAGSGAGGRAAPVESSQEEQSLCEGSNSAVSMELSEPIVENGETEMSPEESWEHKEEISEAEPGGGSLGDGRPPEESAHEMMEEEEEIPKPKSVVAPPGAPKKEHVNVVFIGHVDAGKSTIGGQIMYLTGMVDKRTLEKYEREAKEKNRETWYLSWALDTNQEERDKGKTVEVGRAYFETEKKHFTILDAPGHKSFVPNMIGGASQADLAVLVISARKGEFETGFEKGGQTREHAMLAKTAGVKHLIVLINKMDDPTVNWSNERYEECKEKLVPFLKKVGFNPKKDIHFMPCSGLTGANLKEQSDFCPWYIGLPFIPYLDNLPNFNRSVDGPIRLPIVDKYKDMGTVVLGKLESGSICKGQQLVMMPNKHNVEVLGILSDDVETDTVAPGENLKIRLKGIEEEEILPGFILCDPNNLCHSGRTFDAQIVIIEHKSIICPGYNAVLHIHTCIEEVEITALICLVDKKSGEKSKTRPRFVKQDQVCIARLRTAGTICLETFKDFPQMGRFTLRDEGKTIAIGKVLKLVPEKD
T1 sequence (Q96SW2 whole entry partner): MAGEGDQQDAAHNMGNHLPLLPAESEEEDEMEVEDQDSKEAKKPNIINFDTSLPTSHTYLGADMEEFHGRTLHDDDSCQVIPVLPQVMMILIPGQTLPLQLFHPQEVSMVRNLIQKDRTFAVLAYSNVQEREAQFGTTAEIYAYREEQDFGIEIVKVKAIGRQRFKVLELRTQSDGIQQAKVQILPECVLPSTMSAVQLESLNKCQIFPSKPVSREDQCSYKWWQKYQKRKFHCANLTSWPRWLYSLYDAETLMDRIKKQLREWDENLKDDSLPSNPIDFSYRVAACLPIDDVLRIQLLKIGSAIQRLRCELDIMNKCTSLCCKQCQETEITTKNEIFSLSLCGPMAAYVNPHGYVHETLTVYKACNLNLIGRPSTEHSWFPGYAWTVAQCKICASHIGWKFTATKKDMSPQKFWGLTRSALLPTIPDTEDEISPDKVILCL
T1 sequence (Q16531 2-1140 partner): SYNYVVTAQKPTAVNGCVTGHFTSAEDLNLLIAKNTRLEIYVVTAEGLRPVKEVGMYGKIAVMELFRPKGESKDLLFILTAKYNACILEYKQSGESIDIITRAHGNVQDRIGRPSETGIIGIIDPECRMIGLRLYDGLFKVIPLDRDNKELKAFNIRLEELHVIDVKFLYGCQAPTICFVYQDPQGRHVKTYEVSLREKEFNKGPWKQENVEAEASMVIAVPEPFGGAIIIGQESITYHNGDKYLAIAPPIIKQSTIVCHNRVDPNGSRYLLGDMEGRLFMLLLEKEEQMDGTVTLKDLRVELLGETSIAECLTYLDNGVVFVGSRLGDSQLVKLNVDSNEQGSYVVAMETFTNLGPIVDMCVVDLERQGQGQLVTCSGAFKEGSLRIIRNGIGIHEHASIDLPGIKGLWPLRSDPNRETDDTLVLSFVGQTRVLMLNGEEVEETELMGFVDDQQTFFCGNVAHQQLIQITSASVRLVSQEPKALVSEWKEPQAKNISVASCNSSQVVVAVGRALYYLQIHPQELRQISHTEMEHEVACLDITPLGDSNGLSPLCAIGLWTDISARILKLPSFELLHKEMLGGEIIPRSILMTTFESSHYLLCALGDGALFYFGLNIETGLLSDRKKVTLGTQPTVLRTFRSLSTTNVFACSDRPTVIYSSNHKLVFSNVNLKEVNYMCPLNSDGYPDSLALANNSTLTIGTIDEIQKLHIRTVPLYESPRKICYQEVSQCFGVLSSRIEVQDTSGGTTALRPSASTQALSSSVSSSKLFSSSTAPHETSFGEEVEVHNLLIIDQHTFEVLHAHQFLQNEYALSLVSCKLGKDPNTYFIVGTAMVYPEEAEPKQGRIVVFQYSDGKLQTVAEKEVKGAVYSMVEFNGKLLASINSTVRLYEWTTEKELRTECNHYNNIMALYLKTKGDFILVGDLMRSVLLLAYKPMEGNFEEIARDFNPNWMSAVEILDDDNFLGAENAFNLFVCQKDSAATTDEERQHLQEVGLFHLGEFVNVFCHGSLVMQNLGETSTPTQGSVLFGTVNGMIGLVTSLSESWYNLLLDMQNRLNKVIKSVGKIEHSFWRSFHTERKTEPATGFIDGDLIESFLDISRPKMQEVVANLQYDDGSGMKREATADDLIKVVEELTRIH
Procedure: FIG. 2A illustrates the volcano plot of differentially abundant proteins in response to Compound D treatment relative to the DMSO control. KG1 cells were treated with DMSO or 100 nM Compound D for 4 hours and subjected to TMT proteomics analysis. The X-axis denotes the log 2-fold change of Compound D versus the DMSO control for each protein. P-values were corrected for multiple hypothesis testing using the Benjamini-Hoschberg method to arrive at an adjusted-P-value (adj-P, also known as a false discovery rate). The y-axis denotes the −log 10 (adj-P) values indicating statistical significance such that proteins lying above the dotted red line are statistically significant findings with adjusted P-values<0.05. FIG. 2B illustrates the immunoblot analysis of KG1 and U937 cells treated with DMSO or Compound D for 4 hours. Where indicated, cells were pretreated with Bortezomib or MLN4924 for 30 minutes. FIGS. 2C and 2D illustrate the immunoblot analysis (FIG. 2C) and cell proliferation (FIG. 2D) of U937-Cas9 parental cells or cells stably transduced with lentiviral vectors expressing a non-targeting sgRNA (sgNT-1), a sgRNA targeting a non-coding region (sgNC-8), or a sgRNA targeting CRBN(sgCRBN-8). Cells were treated with DMSO or Compound D at indicated concentrations. FIGS. 2E and 2F illustrate the immunoblot analysis (left panel) and cell proliferation (right panel) of MOLM-13 (FIG. 2E) and OCI-AML2 (FIG. 2F) parental and CRBN−/− cells. Cells were treated with DMSO or Compound D at indicated concentrations. Results shown in all figure panels are representative of three biological replicates. Data in FIGS. 2D, 2E (right panel), and 2F (right panel) are shown as mean±SD, n=3 technical replicates.
FIG. 3A illustrates FLAG-HA tagged cereblon wild-type (FLAG-HA-CRBN) or Y384A/W386A mutant (FLAG-HA-YWAA) produced in 293FT CRBN−/− cells was used to capture V5 tagged GSPT1 (GSPT1-V5) and V5 tagged IKZF1 (IKZF1-V5) transiently expressed in 293FT CRBN−/− cells. […] FIG. 3B illustrates the surface representation of GSPT1 in complex with cereblon, DDB1 and Compound D, with DDB1 shown in purple, cereblon in blue, and GSPT1 in orange. The position of Compound D is shown with a white arrow. FIG. 3C illustrates the Fo-Fc omit electron density (green mesh) for Compound D (yellow sticks) contoured at 3.06. FIG. 3D illustrates GSPT1's interaction with cereblon is mediated by a β-hairpin loop. Hydrogen bond interactions between cereblon and the GPST1 β-hairpin are shown as yellow dashes. FIG. 3E illustrates details of the binding interface between cereblon and GSPT1. Compound D is represented as yellow sticks. Predicted polar interactions between Compound D and cereblon are shown as yellow dashes. FIG. 3F illustrates the immunoblot analysis of U937 parental cells or cells stably expressing HA-GSPT1-G575N. Cells were treated with DMSO or Compound D at the indicated concentrations. FIGS. 3G and 311 illustrate the immunoblot analysis (left panel) and cell proliferation (right panel) of MOLM-13 (FIG. 3G) and OCI-AML2 (FIG. 311) parental cells and cells stably expressing HA tagged GSPT1-G575N. Cells were treated with DMSO or Compound D at indicated concentrations.
Like all other cereblon modulators, Compound D contains a glutarimide ring (FIG. 1A) that can bind cereblon and redirect it to target neosubstrates for degradation. Thus, the effect of Compound D on the global proteome in AML cell line KG-1 was assessed using tandem mass tag (TMT) quantitative mass spectrometry.
Specifically, U937 cells stably expressing Cas9 were infected with lentiviral vectors constitutively expressing RFP and non-targeting or non-coding sgRNA (sgNT) controls, or sgRNAs targeting TSC1 or TSC2. Infected cells were selected with 1 μg/ml puromycin. […]

Chain of Ikaros (Q96SW2 whole entry): as the sequence (Q96SW2 whole entry partner) above
Chain of Ikaros (Q13422 whole entry): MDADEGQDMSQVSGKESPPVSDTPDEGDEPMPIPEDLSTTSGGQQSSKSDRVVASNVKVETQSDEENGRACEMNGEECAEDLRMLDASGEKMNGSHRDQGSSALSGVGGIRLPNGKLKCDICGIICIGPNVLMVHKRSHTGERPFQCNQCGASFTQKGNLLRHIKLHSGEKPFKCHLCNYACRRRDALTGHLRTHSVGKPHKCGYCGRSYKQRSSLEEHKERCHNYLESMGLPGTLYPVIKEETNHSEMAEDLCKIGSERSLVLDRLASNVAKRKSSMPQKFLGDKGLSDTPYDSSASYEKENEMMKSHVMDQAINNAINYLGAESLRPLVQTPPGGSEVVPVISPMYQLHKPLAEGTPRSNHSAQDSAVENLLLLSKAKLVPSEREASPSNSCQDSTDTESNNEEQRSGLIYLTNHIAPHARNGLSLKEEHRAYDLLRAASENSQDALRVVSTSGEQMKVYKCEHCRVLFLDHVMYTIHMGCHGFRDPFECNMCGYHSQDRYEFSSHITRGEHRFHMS
Chain of Ikaros (Q16531 whole entry, further chain): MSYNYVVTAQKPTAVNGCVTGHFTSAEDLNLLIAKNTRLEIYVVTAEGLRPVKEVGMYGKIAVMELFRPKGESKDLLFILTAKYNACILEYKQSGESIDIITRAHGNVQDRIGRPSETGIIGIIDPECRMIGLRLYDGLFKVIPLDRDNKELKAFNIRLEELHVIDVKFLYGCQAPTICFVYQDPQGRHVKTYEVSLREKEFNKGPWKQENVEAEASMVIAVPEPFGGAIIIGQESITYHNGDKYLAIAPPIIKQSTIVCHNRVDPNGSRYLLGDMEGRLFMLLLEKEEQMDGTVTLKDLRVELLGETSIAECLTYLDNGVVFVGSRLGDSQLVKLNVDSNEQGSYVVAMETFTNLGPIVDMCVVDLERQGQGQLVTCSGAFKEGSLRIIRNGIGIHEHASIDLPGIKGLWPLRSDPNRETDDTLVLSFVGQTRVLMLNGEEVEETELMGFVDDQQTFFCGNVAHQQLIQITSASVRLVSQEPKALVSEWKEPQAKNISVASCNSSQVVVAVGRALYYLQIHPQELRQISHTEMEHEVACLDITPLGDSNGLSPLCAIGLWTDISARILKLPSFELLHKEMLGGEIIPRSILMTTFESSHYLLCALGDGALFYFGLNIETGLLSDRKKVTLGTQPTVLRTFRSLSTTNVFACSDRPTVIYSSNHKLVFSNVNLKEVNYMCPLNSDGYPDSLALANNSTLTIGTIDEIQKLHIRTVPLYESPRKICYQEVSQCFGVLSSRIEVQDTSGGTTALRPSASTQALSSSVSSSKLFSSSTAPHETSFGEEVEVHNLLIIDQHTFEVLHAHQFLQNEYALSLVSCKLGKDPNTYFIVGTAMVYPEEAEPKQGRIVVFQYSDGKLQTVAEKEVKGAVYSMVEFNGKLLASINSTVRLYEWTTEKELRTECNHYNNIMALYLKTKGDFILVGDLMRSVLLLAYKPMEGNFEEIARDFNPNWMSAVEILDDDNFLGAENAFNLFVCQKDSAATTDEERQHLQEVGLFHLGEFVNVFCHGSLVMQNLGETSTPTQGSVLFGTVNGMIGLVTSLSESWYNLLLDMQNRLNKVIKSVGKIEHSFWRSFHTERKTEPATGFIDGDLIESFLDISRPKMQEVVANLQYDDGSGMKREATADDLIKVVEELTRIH

Structure (SMILES) | water uptake [2] | further results
Nc1cccc2c1C(=O)N(C1CCC(=O)NC1=O)C2=O (centres unmarked) [pomalidomide] |  | degradation of Ikaros under TSC1 or TSC2 deficiency [1]: did not affect the degradation of Ikaros by pomalidomide
O=C1CCC(N2Cc3cc(CNC(=O)C(F)(F)c4ccc(Cl)cc4)ccc3C2=O)C(=O)N1 (centres unmarked) [Form C, 2-(4-chlorophenyl)-N-((2-(2,6-dioxopiperidin-3-yl)-1-oxoisoindolin-5-yl)methyl)-2,2-difluoroacetamide] | about 0.6 % w/w | 
C[C@@H]1C[C@@H]([C@H](O)CC2CC(=O)NC(=O)C2)C(=O)[C@@H](C)C1 [cycloheximide, reference compound] |  | protein level of GSPT1, cycloheximide treatment alone [3]: did not show much effect on the protein level of GSPT1
O=C1CCC(N2Cc3cc(CNC(=O)C(F)(F)c4ccc(Cl)cc4)ccc3C2=O)C(=O)N1 (centres unmarked) [Form A, 2-(4-chlorophenyl)-N-((2-(2,6-dioxopiperidin-3-yl)-1-oxoisoindolin-5-yl)methyl)-2,2-difluoroacetamide] | about 1.2 % w/w | 
O=C1CCC(N2Cc3cc(CNC(=O)C(F)(F)c4ccc(Cl)cc4)ccc3C2=O)C(=O)N1 (centres unmarked) [Form B, 2-(4-chlorophenyl)-N-((2-(2,6-dioxopiperidin-3-yl)-1-oxoisoindolin-5-yl)methyl)-2,2-difluoroacetamide] | about 1.4 % w/w | 
